Test results as given in patent publication US11053204B2, “Pyrimidinyloxy benzene derivatives as herbicides” (FMC Corporation, priority 2015, dated 2021).

Legend:
Assay type in all cases: in vivo
[1] = test system: pigweed (Amaranthus retroflexus); assay: Test A preemergence, visual injury rating; conditions: 0 to 100 scale (0 no effect, 100 complete control)
How it was run: (§1)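 Scoring: eye-based comparison with untreated controls, 0 for no effect through 100 for complete control, at about day 10. Treatments: directed soil spray preemergence; foliar spray postemergence on 2–10 cm plants at the one- to two-leaf stage. Medium: loam soil with sand.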

[2] = test system: Italian ryegrass (Lolium multiflorum); assay: Test A preemergence, visual injury rating; conditions: 0 to 100 scale (0 no effect, 100 complete control)
How it was run: as §1

[3] = test system: barnyardgrass (Echinochloa crus-galli); assay: Test A preemergence, visual injury rating; conditions: 0 to 100 scale (0 no effect, 100 complete control)
How it was run: as §1

[4] = test system: kochia (Kochia scoparia); assay: Test A preemergence, visual injury rating; conditions: 0 to 100 scale (0 no effect, 100 complete control)
How it was run: as §1

[5] = test system: giant foxtail (Setaria faberii); assay: Test A preemergence, visual injury rating; conditions: 0 to 100 scale (0 no effect, 100 complete control)
How it was run: as §1

[6] = test system: ragweed (common ragweed, Ambrosia elatior); assay: Test A preemergence, visual injury rating; conditions: 0 to 100 scale (0 no effect, 100 complete control)
How it was run: as §1

[7] = test system: crabgrass, large (large crabgrass, Digitaria sanguinalis); assay: Test C postemergence, plant response rating; conditions: Digitaria sanguinalis, post-emergence
How it was run: (§2)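 Preemergence: seeds sown in loam–sand blend or silt loam and sprayed with test chemicals in a non-phytotoxic surfactant-containing solvent. Postemergence: potted plants at 2–18 cm (1–4-leaf stage) sprayed with the same formulation. After 13–15 d in greenhouse, visual rating versus controls on 0 (no effect) to 100 (complete control) scale.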

[8] = test system: soybean (Glycine max); assay: Test C postemergence, plant response rating; conditions: Glycine max, post-emergence
How it was run: as §2

[9] = test system: ryegrass, Italian (Italian ryegrass, Lolium multiflorum); assay: Test C postemergence, plant response rating; conditions: Lolium multiflorum, post-emergence
How it was run: as §2

[10] = test system: kochia (Kochia scoparia); assay: Test C postemergence, plant response rating; conditions: Bassia scoparia, post-emergence
How it was run: as §2

[11] = test system: galium (catchweed bedstraw, Galium aparine); assay: Test C postemergence, plant response rating; conditions: Galium, post-emergence
How it was run: as §2

[12] = test system: chickweed (common chickweed, Stellaria media); assay: Test C postemergence, plant response rating; conditions: Stellaria media, post-emergence
How it was run: as §2

[13] = test system: nutsedge, yellow (yellow nutsedge, Cyperus esculentus); assay: Test C postemergence, plant response rating; conditions: Cyperus, post-emergence
How it was run: as §2

[14] = test system: oat, wild (wild oat Avena fatua); assay: Test C postemergence, plant response rating; conditions: Avena fatua, post-emergence
How it was run: as §2

[15] = test system: lambsquarters (Chenopodium album); assay: Test C postemergence, plant response rating; conditions: Chenopodium album, post-emergence
How it was run: as §2

[16] = test system: corn (Zea mays); assay: Test C postemergence, plant response rating; conditions: Zea mays, post-emergence
How it was run: as §2

[17] = test system: ragweed (common ragweed, Ambrosia elatior); assay: Test C postemergence, plant response rating; conditions: Ambrosia artemisiifolia, post-emergence
How it was run: as §2

CCCOC(=O)c1c(Br)cccc1Oc1ncc(Cl)cn1 [Compound 13, propyl 2-bromo-6-[(5-chloro-2-pyrimidinyl)oxy]benzoate]
pest or weed control at 125 g/ha ([1]; Amaranthus retroflexus, pre-emergence, 240 h, 125 g ai/ha, read-out: Pigweed plant response rating): 100%
pest or weed control at 500 g/ha ([1]; Amaranthus retroflexus, pre-emergence, 240 h, 500 g ai/ha, read-out: Pigweed plant response rating): 100%
pest or weed control at 125 g/ha ([2]; Lolium multiflorum, pre-emergence, 240 h, 125 g ai/ha, read-out: Ryegrass, Italian plant response rating): 10%
pest or weed control at 500 g/ha ([2]; Lolium multiflorum, pre-emergence, 240 h, 500 g ai/ha, read-out: Ryegrass, Italian plant response rating): 90%
pest or weed control at 125 g/ha ([3]; Echinochloa crus-galli, pre-emergence, 240 h, 125 g ai/ha, read-out: Barnyardgrass plant response rating): 100%
pest or weed control at 500 g/ha ([3]; Echinochloa crus-galli, pre-emergence, 240 h, 500 g ai/ha, read-out: Barnyardgrass plant response rating): 100%
pest or weed control at 125 g/ha ([4]; Bassia scoparia, pre-emergence, 240 h, 125 g ai/ha, read-out: Kochia plant response rating): 90%
pest or weed control at 500 g/ha ([4]; Bassia scoparia, pre-emergence, 240 h, 500 g ai/ha, read-out: Kochia plant response rating): 100%
pest or weed control at 125 g/ha ([5]; Setaria faberi, pre-emergence, 240 h, 125 g ai/ha, read-out: Foxtail, Giant plant response rating): 100%
pest or weed control at 500 g/ha ([5]; Setaria faberi, pre-emergence, 240 h, 500 g ai/ha, read-out: Foxtail, Giant plant response rating): 100%
pest or weed control at 125 g/ha ([6]; Ambrosia artemisiifolia, pre-emergence, 240 h, 125 g ai/ha, read-out: Ragweed plant response rating): 0%
pest or weed control at 500 g/ha ([6]; Ambrosia artemisiifolia, pre-emergence, 240 h, 500 g ai/ha, read-out: Ragweed plant response rating): 0%
pest or weed control at 4 g/ha ([7]; 4 g ai/ha, scale of 0 to 100): 5%
pest or weed control at 8 g/ha ([7]; 8 g ai/ha, scale of 0 to 100): 5%
pest or weed control at 16 g/ha ([7]; 16 g ai/ha, scale 0 to 100): 5%
pest or weed control at 31 g/ha ([7]; 31 g ai/ha, scale 0 to 100): 15%
plant injury at 4 g/ha ([8]; 4 g ai/ha, scale of 0 to 100): 15%
plant injury at 8 g/ha ([8]; 8 g ai/ha, scale of 0 to 100): 20%
plant injury at 16 g/ha ([8]; 16 g ai/ha, scale 0 to 100): 30%
plant injury at 31 g/ha ([8]; 31 g ai/ha, scale 0 to 100): 35%
pest or weed control at 4 g/ha ([9]; 4 g ai/ha, scale of 0 to 100): 0%
pest or weed control at 8 g/ha ([9]; 8 g ai/ha, scale of 0 to 100): 0%
pest or weed control at 16 g/ha ([9]; 16 g ai/ha, scale 0 to 100): 0%
pest or weed control at 31 g/ha ([9]; 31 g ai/ha, scale 0 to 100): 0%
pest or weed control at 4 g/ha ([10]; 4 g ai/ha, scale of 0 to 100): 0%
pest or weed control at 8 g/ha ([10]; 8 g ai/ha, scale of 0 to 100): 5%
pest or weed control at 16 g/ha ([10]; 16 g ai/ha, scale 0 to 100): 30%
pest or weed control at 31 g/ha ([10]; 31 g ai/ha, scale 0 to 100): 30%
pest or weed control at 4 g/ha ([11]; 4 g ai/ha, scale of 0 to 100): 10%
pest or weed control at 8 g/ha ([11]; 8 g ai/ha, scale of 0 to 100): 5%
pest or weed control at 16 g/ha ([11]; 16 g ai/ha, scale 0 to 100): 65%
pest or weed control at 31 g/ha ([11]; 31 g ai/ha, scale 0 to 100): 50%
pest or weed control at 4 g/ha ([12]; 4 g ai/ha, scale of 0 to 100): 5%
pest or weed control at 8 g/ha ([12]; 8 g ai/ha, scale of 0 to 100): 5%
pest or weed control at 16 g/ha ([12]; 16 g ai/ha, scale 0 to 100): 40%
pest or weed control at 31 g/ha ([12]; 31 g ai/ha, scale 0 to 100): 70%
pest or weed control at 4 g/ha ([13]; 4 g ai/ha, scale of 0 to 100): 0%
pest or weed control at 8 g/ha ([13]; 8 g ai/ha, scale of 0 to 100): 0%
pest or weed control at 16 g/ha ([13]; 16 g ai/ha, scale 0 to 100): 5%
pest or weed control at 31 g/ha ([13]; 31 g ai/ha, scale 0 to 100): 5%
pest or weed control at 4 g/ha ([14]; 4 g ai/ha, scale of 0 to 100): 0%
pest or weed control at 8 g/ha ([14]; 8 g ai/ha, scale of 0 to 100): 0%
pest or weed control at 16 g/ha ([14]; 16 g ai/ha, scale 0 to 100): 0%
pest or weed control at 31 g/ha ([14]; 31 g ai/ha, scale 0 to 100): 5%
pest or weed control at 4 g/ha ([15]; 4 g ai/ha, scale of 0 to 100): 30%
pest or weed control at 8 g/ha ([15]; 8 g ai/ha, scale of 0 to 100): 60%
pest or weed control at 16 g/ha ([15]; 16 g ai/ha, scale 0 to 100): 50%
pest or weed control at 31 g/ha ([15]; 31 g ai/ha, scale 0 to 100): 55%
Corn plant response rating (crop injury, 0 = no effect, 100 = complete kill) at 4 g/ha ([16]; 4 g ai/ha, scale of 0 to 100): 5%
Corn plant response rating (crop injury, 0 = no effect, 100 = complete kill) at 8 g/ha ([16]; 8 g ai/ha, scale of 0 to 100): 5%
Corn plant response rating (crop injury, 0 = no effect, 100 = complete kill) at 16 g/ha ([16]; 16 g ai/ha, scale 0 to 100): 10%
Corn plant response rating (crop injury, 0 = no effect, 100 = complete kill) at 31 g/ha ([16]; 31 g ai/ha, scale 0 to 100): 5%
pest or weed control at 4 g/ha ([17]; 4 g ai/ha, scale of 0 to 100): 5%
pest or weed control at 8 g/ha ([17]; 8 g ai/ha, scale of 0 to 100): 5%
pest or weed control at 16 g/ha ([17]; 16 g ai/ha, scale 0 to 100): 5%
pest or weed control at 31 g/ha ([17]; 31 g ai/ha, scale 0 to 100): 5%

N#Cc1cccc(Oc2ncc(Cl)cn2)c1C(=O)OCCC(F)(F)F [Compound 30]
Pigweed plant response rating ([1]; 125 g ai/ha): 100
Pigweed plant response rating ([1]; 500 g ai/ha): 100
Ryegrass, Italian plant response rating ([2]; 125 g ai/ha): 0
Ryegrass, Italian plant response rating ([2]; 500 g ai/ha): 0
Barnyardgrass plant response rating ([3]; 125 g ai/ha): 0
Barnyardgrass plant response rating ([3]; 500 g ai/ha): 0
Kochia plant response rating ([4]; 125 g ai/ha): 90
Kochia plant response rating ([4]; 500 g ai/ha): 100
Foxtail, Giant plant response rating ([5]; 125 g ai/ha): 100
Foxtail, Giant plant response rating ([5]; 500 g ai/ha): 100
Ragweed plant response rating ([6]; 125 g ai/ha): 0
Ragweed plant response rating ([6]; 500 g ai/ha): 0

C=C(Br)COC(=O)c1c(Br)cccc1Oc1ncc(Cl)cn1 [Compound 61]
Pigweed plant response rating ([1]; 125 g ai/ha): 100
Pigweed plant response rating ([1]; 500 g ai/ha): 100
Ryegrass, Italian plant response rating ([2]; 125 g ai/ha): 30
Ryegrass, Italian plant response rating ([2]; 500 g ai/ha): 80
Barnyardgrass plant response rating ([3]; 125 g ai/ha): 50
Barnyardgrass plant response rating ([3]; 500 g ai/ha): 100
Kochia plant response rating ([4]; 125 g ai/ha): 90
Kochia plant response rating ([4]; 500 g ai/ha): 100
Foxtail, Giant plant response rating ([5]; 125 g ai/ha): 100
Foxtail, Giant plant response rating ([5]; 500 g ai/ha): 100
Ragweed plant response rating ([6]; 125 g ai/ha): 0
Ragweed plant response rating ([6]; 500 g ai/ha): 20
